Measured values published in paper PMC6140472 (Proceedings of the National Academy of Sciences of the …, 2018).

Target: T1, MhFPPS (MhIDS-2), full-length (Murgantia histrionica, UniProt A0A343W970)
T1 sequence (A0A343W970 1-405): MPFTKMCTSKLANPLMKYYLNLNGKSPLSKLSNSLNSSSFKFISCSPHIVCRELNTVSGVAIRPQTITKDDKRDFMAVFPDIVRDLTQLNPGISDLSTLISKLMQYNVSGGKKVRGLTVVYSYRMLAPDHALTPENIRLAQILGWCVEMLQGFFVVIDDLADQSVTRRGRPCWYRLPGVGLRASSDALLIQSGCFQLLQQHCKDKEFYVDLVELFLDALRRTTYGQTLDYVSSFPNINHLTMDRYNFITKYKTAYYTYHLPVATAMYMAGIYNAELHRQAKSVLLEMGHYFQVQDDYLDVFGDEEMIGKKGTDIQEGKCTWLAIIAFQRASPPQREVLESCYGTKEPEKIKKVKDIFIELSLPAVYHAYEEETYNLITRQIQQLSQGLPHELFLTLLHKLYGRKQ
Test: LC-MS/MS product assay
Assay type: biochemical

| Compound | LC-MS/MS product assay (co-substrate IPP) | LC-MS/MS product assay (co-substrate DMAPP) |
| --- | --- | --- |
| CC(C)=CCOP(=O)(O)OP(=O)(O)O [DMAPP] | MhIDS-2 produced (E,E)-FPP from IPP and DMAPP | – |
| C=C(C)CCOP(=O)(O)OP(=O)(O)O [IPP] | – | MhIDS-2 produced (E,E)-FPP from IPP and DMAPP |
